Measured values reported in patent US11628146B2, “Estrogen receptor ligand treatment for neurodegenerative diseases” (The Regents of the University of California, priority 2014, dated 2023).
“Also recorded” adds a separate entry of the source.

Assays:
[1] = system: cerebrum and cerebellum of female C57BL/6 mice with EAE; assay: Cerebral and cerebellar neuropathology (gray and white matter) in EAE; format: in vivo, mouse; settings: 30 mg/kg every other day; vs Vehicle EAE
Protocol: Histological Preparation. Mice were exposed to a lethal dose of isoflurane and perfused transcardially with ice-cold 1×PBS for 8-15 min, followed by 10% formalin for 10-15 min. Spinal cords and brains were dissected and submerged in 10% formalin overnight at 4° C., followed by 30% sucrose in PBS for 24 h. Tissues were embedded in […] solution for cryostat sectioning then post-fixed overnight in 10% formalin and cryoprotected in 30% sucrose. The embedded tissues were stored in −80° C. after flash frozen in dry ice. 40 μm thick free-floating spinal cord cross-sections, and sagittal brain sections were obtained with a microtome b cryostat (model HM505E) at −20° C. Tissues were collected serially and stored in 1×PBS with 1% sodium azide in 4° C. until immunohistochemistry.
Immunofluorescence. Prior to histological staining, […] free-floating sections were thoroughly washed with 1×PBS to remove residual sodium azide. In the case of anti-MBP labeling, tissue sections were processed with an additional 1 hour incubation with 5% glacial acetic acid in 100-proof ethanol at room temperature (RT). After washing tissue sections were permeabilized with 0.3% TritonX-100 and 2% normal goat serum in 1×PBS for 30 minutes at room temperature and blocked with 10% normal goat serum in 1×PBS for 1 hour. Tissues were then incubated with primary antibodies overnight in 4° C. The following primary antibody (Ab) were used: Rat anti-MBP (Millipore) at 1:1000 dilutions, Rabbit anti-NF200 (Sigma Aldrich) at 1:750 dilutions, Rabbit anti-beta-APP (Life Technologies) at 1:200 dilutions, Mouse anti-NeuN at 1:1000 dilutions (Millipore), Rabbit anti-PSD95, and Rabbit anti-Synapsin 1 at 1:500 dilutions (Millipore), and Rat anti-CD45 at 1:1500 dilutions (Millipore). The next day tissues were washed and incubated with secondary antibodies conjugated to Cy5 or Cy3 (Millipore) for 1 hour at room temperature. A nuclear stain DAPI (2 ng/mL; Molecular Probes) was added 10 minutes prior to final washes after secondary Ab incubation. Sections were mounted on slides, allowed to semi-dry, and cover slipped in fluoromount G (Fisher Scientific). IgG-control experiments were performed for all primary Ab, and only non-immunoreactive tissues under these conditions were analyzed.
Chromagen Immunohistochemistry. […] Tissues were then incubated with primary antibodies overnight in 4° C. The following primary antibodies were used: Rat anti-CD3 at 1:2000 dilutions (BD Pharmingen), anti-Calbindin D28K at 1:1000 dilutions (Millipore), and Rabbit anti-Iba1 at 1:10000 dilutions (Wako Chemicals), were added for 2 hour at room temperature, and then placed in 4° C. overnight. Tissue sections then followed with secondary Ab labeling at 1:1000 dilutions (Vector labs) for 1 hour at room temperature and then with Avidin-Biotin Conjugation solution (Vector Labs) for 1 hour at room temperature. Tissue sections were treated with DAB peroxidase substrate (Vector labs) according to manufacturer instructions. IgG-control experiments were performed for all primary Ab, and only non-immunoreactive tissues under these conditions were analyzed.
Microscopy and Quantification. Three spinal cord cross-sections at the C5-12 level from each mouse (n=3-6) were captured under microscope at 10× magnification. To quantify demyelination in the spinal cord and cerebellum, white matter was manually delineated on the basis of DAPI staining, and MBP staining intensity was calculated and reported in the sampled area. Axonal damage was assessed by counting beta-APP^+ cells in a confocal 10× microscope in spinal cord. Axonal densities were calculated by counting the number of NF200^+ or NeuN^+ neuronal cells in a 10× confocal image in the sampled area of the captured tissue section. Cerebellar Purkinje (Calbindin^+) cells were manually counted using a brightfield 10× microscope over the entire sagittal cerebellum. […]

[2] = system: EAE in C57BL/6 mice; assay: Standard EAE clinical score (0-5 scale), MOG 35-55 induced EAE, C57BL/6 mice; format: in vivo, mouse; parameters: key to Standard EAE Score: n.s. = not significant; *p < 0.05; ***p = 0.0004; ****p < 0.0001; n.i. = not informative; settings: for Standard EAE Score: significance vs vehicle; for Standard EAE clinical score: vs miglyol vehicle
From the text: Animals. C57BL/6 and NOD mice 8 weeks old were purchased from Jackson Laboratories (Bar Harbor, Me.). Animals were maintained under environmentally controlled conditions in a 12-hour light/dark cycle with access to food and water ad libitum. All procedures were done in accordance with the guidelines of the National Institutes of Health and the Chancellor's Animal Research Committee of the University of California, Los Angeles Office for the Protection of Research Subjects.
Reagents. AC-186 was dissolved in either Miglyol 812N liquid oil (Sasol North America) or sesame oil (Sigma Aldrich) as following concentration; 1.5 mg/mL for 3 mg/kg group, 5 mg/mL for 10 mg/kg group, and 15 mg/mL for 30 mg/kg group. Diarylpropionitrile (DPN, Tocris Biosciences) was dissolved in 10% molecular-grade ethanol and diluted with 90% of either Miglyol 812N liquid oil or sesame oil.
EAE and Treatments. Animals were injected subcutaneously with Myelin Oligodendrocyte Glycoprotein (MOG), amino acids 35-55 (200 μg/animal, American Peptides), emulsified in complete Freund's adjuvant (CFA) and supplemented with Mycobacterium tuberculosis H37ra (300 μg/animal, Difco Laboratories), over two sites drained by left inguinal and auxiliary lymph nodes in a total volume of 0.1 ml/mouse. One week later, a booster immunization was delivered over contra lateral lymph nodes. Pertussis toxin (500 ng/mouse) (List Biological Laboratories, Inc.) was injected intraperitoneally on days 0 and 2. Animals were monitored daily for EAE signs based on a standard EAE 0-5 scale scoring system: 0—healthy, 1—complete loss of tail tonicity, 2—loss of righting reflex, 3—partial paralysis, 4—complete paralysis of one or both hind limbs, and 5—moribund. Animals received 0.05 ml of either of 1.5, 5, 15 mg/mL AC-186, vehicle (sesame oil or Miglyol 812N liquid oil), or DPN (8 mg/kg/day) via subcutaneous injections every other day. Animals were treated with AC-186 or vehicle after EAE induction. Specifically, treatment was initiated at the first clear signs of clinical disease (EAE day 13-15), and continued to the endpoint of the experiment.

Compound: Oc1ccc(C2(c3ccccc3F)CCC(F)(F)CC2)cc1 [AC-186]
- Axonal densities (NF200), cerebellar white matter [1]: a protective effect; also recorded: significantly more axon numbers
- Axonal densities (NF200), cerebral white matter (splenium of the corpus callosum) [1]: a protective effect; also recorded: significantly more axon numbers
- Calbindin+ Purkinje cells, cerebellar gray matter [1]: prevented; also recorded: a protective effect; also recorded: higher numbers of Calbindin^+ Purkinje cells
- Myelin staining intensity (MBP), cerebellar white matter [1]: a protective effect; also recorded: higher MBP staining intensity
- Myelin staining intensity (MBP), cerebral white matter (splenium of the corpus callosum) [1]: a protective effect; also recorded: a trend for higher MBP staining intensity
- NeuN+ neuronal cells, cerebral cortex gray matter [1]: prevented; also recorded: a protective effect; also recorded: higher numbers of NeuN^+ cortical neurons
- PSD-95 staining, cerebellar gray matter (molecular layer) [1]: prevented; also recorded: a protective effect; also recorded: greater PSD-95 and Synapsin1 staining
- PSD-95 staining, cerebral cortex gray matter [1]: prevented; also recorded: a protective effect; also recorded: greater PSD-95 staining
- Synapsin1 staining, cerebellar molecular layer [1]: a protective effect; also recorded: greater PSD-95 and Synapsin1 staining
- Synapsin-1 staining, cerebral cortex gray matter [1]: No effect was observed; also recorded: no significant differences in Synapsin-1 staining
- Standard EAE Score ([2]; C57BL/6 F, AC186 3 mg/kg, sesame vehicle): n.s.
- Standard EAE Score ([2]; C57BL/6 F, AC186 10 mg/kg, miglylol vehicle): **** (less robust that 30 mg/kg) (****p < 0.0001)
- Standard EAE Score ([2]; C57BL/6 F, AC186 10 mg/kg, sesame vehicle): n.s.
- Standard EAE Score ([2]; C57BL/6 F, AC186 30 mg/kg, miglylol vehicle): **** (****p < 0.0001)
- Standard EAE Score ([2]; C57BL/6 F, AC186 30 mg/kg, sesame vehicle): * (*p < 0.05)
- Standard EAE Score ([2]; C57BL/6 M, AC186 30 mg/kg, miglylol vehicle): **** (****p < 0.0001)
- Standard EAE Score ([2]; C57BL/6 M, AC186 30 mg/kg, sesame vehicle): n.s.
- EAE score ([2]; female C57BL/6, 3 mg/kg s.c. every other day in sesame oil, vs vehicle): no effect on the EAE score
- Standard EAE clinical score ([2]; female C57BL/6, 10 mg/kg in miglyol): significant efficacy in ameliorating the standard EAE clinical scores; also recorded: ameliorated
- EAE score ([2]; female C57BL/6, 10 mg/kg s.c. every other day in sesame oil, vs vehicle): a trend toward improvement
- Standard EAE clinical score ([2]; female C57BL/6, 30 mg/kg in miglyol): significant efficacy in ameliorating the standard EAE clinical scores; also recorded: beneficial effects; also recorded: ameliorated
- EAE score ([2]; female C57BL/6, 30 mg/kg s.c. every other day in sesame oil, from first clinical signs, vs vehicle): a significant effect in ameliorating standard EAE clinical scores; also recorded: displayed the best EAE score; also recorded: significantly less severe EAE scores
- EAE score ([2]; male C57BL/6, 30 mg/kg in miglyol, vs miglyol alone): performed significantly better; also recorded: better EAE scores
- EAE score ([2]; male C57BL/6, 30 mg/kg in sesame oil, vs sesame oil alone): did not perform significantly better; also recorded: did not display efficacy
